Source: PMC10615877 (Chemistry (Weinheim an der Bergstrasse, Germany), 2023)
Where two headings read alike, the source gives them in different places.

Columns and labels:
[1] = tested on: MDA-MB-468 cell line; conditions: TNBC MDA-MB-468 cell line; cited from earlier work
[2] = tested on: thioredoxin reductase (TrxR); conditions: for inhibition: 100 µM
[3] = tested on: MDA-MB-231; experiment: Presto Blue cell viability assay, MDA-MB-231; type: cell-based, human; conditions: read-out: IC50 MDA-MB-231 (breast), 72 hours incubation
[4] = tested on: SKOV-3; experiment: Presto Blue cell viability assay, SKOV-3; type: cell-based, human; conditions: read-out: IC50 SKOV-3 (ovarian), 72 hours incubation
[5] = tested on: A2780; experiment: Presto Blue cell viability assay, A2780; type: cell-based, human; conditions: read-out: IC50 A2780 (ovarian), 72 hours incubation
[6] = tested on: Caki-1; experiment: Presto Blue cell viability assay, Caki-1; type: cell-based, human; conditions: read-out: IC50 Caki-1 (renal), 72 hours incubation
[7] = tested on: T24; experiment: Presto Blue cell viability assay, T24; type: cell-based, human; conditions: read-out: IC50 T24 (bladder), 72 hours incubation
[8] = tested on: IMR90; experiment: Presto Blue cell viability assay, non-cancerous lung fibroblasts IMR90; type: cell-based, human; conditions: read-out: IC50 IMR90 (lung fibroblasts), 72 hours incubation
[9] = tested on: MDA-MB-157 cells; conditions: read-out: IC50 2D MDA-MB-157; cited from earlier work
[10] = tested on: plasmid pBR322 DNA; experiment: Electrophoresis mobility shift assay with plasmid DNA; conditions: no reducing agent, metal/DNAbp 0.2-1.0, 20 h, 37 °C
[11] = tested on: A549; experiment: Presto Blue cell viability assay, A549; type: cell-based, human; conditions: read-out: IC50 A549 (lung), 72 hours incubation
[12] = tested on: MDA-MB-157 cells; experiment: PrestoBlue cell viability, MDA-MB-157 2D monolayer; type: cell-based; conditions: read-out: IC50 2D MDA-MB-157; 72 hours incubation, Presto Blue
[13] = tested on: MDA-MB-231 cells; experiment: Annexin V / propidium iodide apoptosis assay by flow cytometry; type: cell-based, human; conditions: 72 h incubation with IC50, MDA-MB-231
[14] = tested on: MDA-MB-231 cell line; type: cell-based, human; conditions: IC20 concentration, 24 h
[15] = tested on: human umbilical vein endothelial cells (HUVEC); experiment: Endothelial tube formation assay; type: cell-based; conditions: IC10 concentration, 16 h
[16] = tested on: MDA-MB-231 cells; conditions: MDA-MB-231 TNBC cell line, oxaliplatin treatment alone; cited from earlier work

Compound	apoptosis [1]	inhibition of TrxR activity ([2]; 1 μM of metal compound, 72 h, MDA-MB-231 cells)	inhibition [2]	IC50 [3]	IC50 [4]	IC50 [5]	IC50 [6]	IC50 [7]	IC50 [8]	IC50 [9]	plasmid pBR322 band mobility (metal-DNA binding) [10]	IC50 [11]	IC50 [12]	increase of early apoptosis [13]	inhibition of migration (wound-healing) [14]	disruption of tube length (TL) [15]	disruption of tube nodes (TN) [15]	increase in apoptosis [16]
N.N.O=C([O-])C1(C(=O)[O-])CCC1.[Pt+2] [Carboplatin]	ca. 60%	–	–	–	–	–	–	–	–	–	–	–	–	–	–	–	–	–
CC(=O)OC[C@H]1O[C@@H]([S-])[C@H](OC(C)=O)[C@@H](OC(C)=O)[C@@H]1OC(C)=O.CCP(CC)CC.[Au+] [Auranofin]	–	100%	100%	–	–	–	–	–	–	–	–	–	–	–	–	–	–	–
N.N.[Cl][Pt][Cl] [cisplatin]	–	–	26.4%	7.46 ± 0.62 µM	3.84 ± 0.39 µM	1.4 ± 0.31 µM	3.21 ± 0.88 µM	2.86 ± 0.36 µM	6.21 ± 0.08 µM	21.6 µM	displayed bands for expected DNA-drug interactions	–	–	–	–	–	–	–
N.N.[Cl-].[Cl-].[OH-].[OH-].[Pt+4] [oxo-cisplatin, [Pt(NH3)2Cl2(OH)2]]	–	–	66%	52.02 ± 0.08 µM	38.6 ± 4.4 µM	2.7 ± 0.4 µM	33.1 ± 2.9 µM	69.9 ± 4.9 µM	53.5 ± 4 µM	–	did not change	67.8 µM	–	–	–	–	–	–
O=C1[O][Pt]2([NH][C@@H]3CCCC[C@H]3[NH]2)[O]C1=O [oxaliplatin]	–	–	29.7%	10.1 ± 0.89 µM	42.6 ± 3.6 µM	1.82 ± 0.02 µM	8.21 ± 0.07 µM	> 100 µM	29.8 ± 1.3 µM	–	displayed bands for expected DNA-drug interactions	15.8 µM	26.6 ± 1.7 µM	30%	20%	8%	14%	30%
